Measurements reported in patent US20120016009A1, “Optimized Methods For Delivery Of DSRNA Targeting The PCSK9 Gene” (priority 2008, published 2012).
In the oligonucleotide strings, read from the 5' end, every base follows the letter of its sugar. An asterisk marks phosphorothioate; unmarked linkages are phosphodiester. Other units and linkages are bracketed, terminal groups are in braces. A string of capitals states the bases alone. d = 2'-deoxy (DNA); m = 2'-O-methyl; r = 2'-OH (RNA)

Tested on: PCSK9 mRNA
Experiment: PCSK9 siRNA screening in HepG2 cells (lipofectamine 2000 transfection, PCSK9 mRNA by Quantigene, normalized to GAP-DH)
Type: cell-based, human
Conditions: for Mean percent remaining mRNA transcript at siRNA concentration/in cell type 30 nM/HepG2: 30 nM siRNA; for Mean percent remaining mRNA transcript at siRNA concentration/in cell type 100 nM/HepG2: 100 nM siRNA; for Mean percent remaining mRNA transcript at siRNA concentration/in cell type 3 nM/HepG2: 3 nM siRNA
How it was run: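 HepG2 cells, grown in MEM with 10% fetal calf serum, antibiotics, non-essential amino acids and sodium pyruvate at 37° C. and 5% CO2, were plated at 2.0×10^4 cells/well in 96-well plates and transfected directly with siRNA using lipofectamine 2000. After 24 hours, cells were lysed and PCSK9 mRNA was measured by Quantigene and normalized to GAP-DH mRNA.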

Row | Substance | Mean percent remaining mRNA transcript at siRNA concentration/in cell type 30 nM/HepG2 | Mean percent remaining mRNA transcript at siRNA concentration/in cell type 100 nM/HepG2 | Mean percent remaining mRNA transcript at siRNA concentration/in cell type 3 nM/HepG2
1 | AD-9535: PCSK9 siRNA (sense rGrArGrUrGrArCrCrArCrCrGrGrGrArArArUrCdT*dT; antisense rGrArUrUrUrCrCrCrGrGrUrGrGrUrCrArCrUrCdT*dT) | 73% | 48% | –
2 | AD-9727: PCSK9 siRNA (sense rArGrGrGmUmCrAmUrGrGmUmCrAmCmCrGrAmCmUdT*dT; antisense rArGrUrCrGrGrUrGrArCmCrArUrGrArCrCrCrUdT*dT) | 118% | – | –
3 | AD-9637: PCSK9 siRNA (sense rGrArGrGrGrCrArGrGrGrUrCrArUrGrGrUrCrAdT*dT; antisense rUrGrArCrCrArUrGrArCrCrCrUrGrCrCrCrUrCdT*dT) | 83% | 56% | –
4 | AD-9747: PCSK9 siRNA (sense mUmCmUrGrGrAmUrGrGmCrAmUmCmUrArGmCmCrAdT*dT; antisense rUrGrGrCmUrArGrArUrGrCmCrArUrCmCrArGrAdT*dT) | 63% | – | –
5 | AD-9567: PCSK9 siRNA (sense rCrGrCrUrGrUrGrUrGrGrArCrCrUrCrUrUrUrGdT*dT; antisense rCrArArArGrArGrGrUrCrCrArCrArCrArGrCrGdT*dT) | 41% | – | –
6 | AD-9728: PCSK9 siRNA (sense mCrArGmCrGrGmCmCrGrGrGrAmUrGmCmCrGrGmCdT*dT; antisense rGrCrCrGrGmCrArUrCrCrCrGrGrCrCrGrCrUrGdT*dT) | 94% | – | –
7 | AD-9717: PCSK9 siRNA (sense rAmCmUrGmUmCmCmCmUmCmCmUmUrGrArGmCrAmCdT*dT; antisense rGrUrGrCrUmCrArArGrGrArGrGrGrAmCrArGrUdT*dT) | 105% | – | –
8 | AD-9690: PCSK9 siRNA (sense mUmCrAmUmUrGrGmUrGmCmCmUmCmCrArGmCrGrAdT*dT; antisense rUrCrGrCrUrGrGrArGrGmCrArCmCrArArUrGrAdT*dT) | 92% | – | –
9 | AD-9541: PCSK9 siRNA (sense rGrGrUrGrArGrGrGrUrGrUrCrUrArCrGrCrCrAdT*dT; antisense rUrGrGrCrGrUrArGrArCrArCrCrCrUrCrArCrCdT*dT) | 43% | – | –
10 | AD-9698: PCSK9 siRNA (sense mCmCrArGrGmUrGmCmUrGmCmCmUrGmCmUrAmCmCdT*dT; antisense rGrGmUrArGmCrArGrGmCrArGmCrArCrCrUrGrGdT*dT) | 73% | – | –
11 | AD-9682: PCSK9 siRNA (sense uGGuGGAGGuGuAucuccuTsT; antisense AGGAGAuAcACCUCcACcATsT; as printed in the source, key not given here) | 38% | – | –
12 | AD-9749: PCSK9 siRNA (sense rGmUmCrArGmCmUmCmCrArGrGmCrGrGmUmCmCmUdT*dT; antisense rArGrGrArCrCrGrCrCrUrGrGrArGrCrUrGrArCdT*dT) | 105% | – | –
13 | AD-9562: PCSK9 siRNA (sense rUrCrUrCrCrUrArGrArCrArCrCrArGrCrArUrAdT*dT; antisense rUrArUrGrCrUrGrGrUrGrUrCrUrArGrGrArGrAdT*dT) | 46% | – | 51%
14 | AD-9619: PCSK9 siRNA (sense rUrCrArGrGrArGrCrCrGrGrGrArCrGrUrCrArGdT*dT; antisense rCrUrGrArCrGrUrCrCrCrGrGrCrUrCrCrUrGrAdT*dT) | 61% | 42% | –
15 | AD-9695: PCSK9 siRNA (sense rArGmCmUmCmCmUrGmCrAmCrArGmUmCmCmUmCmCdT*dT; antisense rGrGrArGrGrArCrUrGrUrGmCrArGrGrArGrCrUdT*dT) | 102% | – | –
16 | AD-9621: PCSK9 siRNA (sense rUrCrUrGrGrArUrGrGrCrArUrCrUrArGrCrCrAdT*dT; antisense rUrGrGrCrUrArGrArUrGrCrCrArUrCrCrArGrAdT*dT) | 77% | – | –
17 | AD-9759: PCSK9 siRNA (sense mUrGrGmUmCrAmCmCrGmCmUrGmCmCrGrGmCrArAdT*dT; antisense rUrUrGrCrCrGrGmCrArGrCrGrGrUrGrArCmCrAdT*dT) | 111% | – | –
18 | AD-9664: PCSK9 siRNA (sense mCmCrGrGrGmCrGrGrAmUrGrArAmUrAmCmCrArGdT*dT; antisense rCrUrGrGmUrArUrUmCrArUrCrCrGrCrCrCrGrGdT*dT) | 53% | – | –
19 | AD-9675: PCSK9 siRNA (sense rGrGrGmCmCmCrAmCrArAmCrGmCmUmUmUmUrGrGdT*dT; antisense rCmCrArArArArGrCrGrUrUrGrUrGrGrGrCrCrCdT*dT) | 78% | – | –
20 | AD-9548: PCSK9 siRNA (sense rGrCrArGrUrCrArGrArGrCrGrCrArCrUrGrCrCdT*dT; antisense rGrGrCrArGrUrGrCrGrCrUrCrUrGrArCrUrGrCdT*dT) | 54% | – | 60%
21 | AD-9604: PCSK9 siRNA (sense rCrUrCrArGrCrCrArArCrCrCrGrCrUrCrCrArCdT*dT; antisense rGrUrGrGrArGrCrGrGrGrUrUrGrGrCrUrGrArGdT*dT) | 49% | 35% | –
22 | AD-9705: PCSK9 siRNA (sense rAmUmCrGrArGrGrArGrGrAmCmUmCmCmUmCmUrGdT*dT; antisense mCrArGrArGrGrArGrUrCrCrUrCrCrUrCrGrArUdT*dT) | 81% | – | –
23 | AD-9726: PCSK9 siRNA (sense rGmUmCrGmUrGmCmUrGrGmUmCrAmCmCrGmCmUrGdT*dT; antisense mCrArGrCrGrGrUrGrArCmCrArGmCrArCrGrArCdT*dT) | 95% | – | –
24 | AD-9624: PCSK9 siRNA (sense rCrGrUrCrArGrCrUrCrCrArGrGrCrGrGrUrCrCdT*dT; antisense rGrGrArCrCrGrCrCrUrGrGrArGrCrUrGrArCrGdT*dT) | 94% | – | –
25 | AD-9514: PCSK9 siRNA (sense rGrUrArCrCrGrGrGrCrGrGrArUrGrArArUrArCdT*dT; antisense rGrUrArUrUrCrArUrCrCrGrCrCrCrGrGrUrArCdT*dT) | 57% | – | –
26 | AD-9739: PCSK9 siRNA (sense mCrGrArGrGrGmCrArGrGrGmUmCrAmUrGrGmUmCdT*dT; antisense rGrArCmCrArUrGrArCrCrCrUrGrCrCrCrUrCrGdT*dT) | 109% | – | –
27 | AD-9663: PCSK9 siRNA (sense rAmCrGrGmUrAmCmCrGrGrGmCrGrGrAmUrGrArAdT*dT; antisense rUrUmCrArUrCrCrGrCrCrCrGrGmUrArCrCrGrUdT*dT) | 102% | – | –
28 | AD-9676: PCSK9 siRNA (sense rGrArGrGrGmUrGmUmCmUrAmCrGmCmCrAmUmUrGdT*dT; antisense mCrArArUrGrGrCrGmUrArGrAmCrArCrCrCrUrCdT*dT) | 100% | – | –
